Experimental data reported in patent publication US10662203B2, “Pyrido[2,3-b]indole compounds for the treatment and prophylaxis of bacterial infection” (Hoffmann-La Roche Inc., priority 2017, dated 2020).
≈ marks a conversion by molar mass, not a printed value.

Columns and labels:
[1] = system: K. pneumoniae (ATCC10031); experiment: 50% growth inhibitory concentration (IC50) determination assay; assay type: cell-based; conditions: Klebsiella pneumoniae, Iso-Sensitest broth, 0.098 = detection limit
In short: (§1)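 Read-out is optical density at λ=600 nm, taken every 20 minutes across a 16 h time course. Bacteria at ~5×10^5 CFU/mL in Iso-Sensitest broth are exposed to two-fold dilutions of compound (50 to 0.097 μM final) at 35±2° C.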

A. baumannii (ATCC17978) = experiment: as above; assay type: cell-based; conditions: Iso-Sensitest broth, 0.098 = detection limit
In short: as §1

S. aureus (ATCC29213) = experiment: as above; assay type: cell-based; conditions: Staphylococcus aureus, Iso-Sensitest broth, 0.098 = detection limit
In short: as §1

[2] = Single dose PK study (SDPK) in female CD-1 mouse; assay type: in vivo; conditions: MOUSE IV, 1.0 mg/kg-Solution; for clearance: female, CD-1, plasma, read-out: CL total
Method: Single Dose PK Study (SDPK) in Female CD-1 Mouse: The single dose PK in female CD-1 mouse was performed to assess compound's pharmacokinetic properties. One group of animals were dosed via bolus intravenous (IV) of the respective compound. Blood samples (approximately 30 μL) were collected via saphenous vein at 5 mins, 15 min, 30 min, 1 hr, 2 hr, 4 hr and 7 hr. For last time point (24 hr), samples were collected via cardiac puncture while the mouse was under anesthesia. Blood samples were placed into tubes containing EDTA-K2 anticoagulant (2 μL of 0.5M per tube) and centrifuged at 3000 rpm for 10 minutes at 4° C. within half an hour to separate plasma from the samples. Following centrifugation, plasma samples were stored in polypropylene tubes, quick frozen over dry ice and kept at −70±10° C. until LC/MS/MS analysis. The pharmacokinetic parameters were calculated using non-compartmental module of WinNonlin® Professional 6.4.

[3] = system: multiple species and strains; experiment: Minimal inhibitory concentration (MIC) and MIC90 determination, broth microdilution (CLSI M07-A10); conditions: S9: P. aeruginosa ATCC BAA-2113
Method: Minimal Inhibitory Concentration (MIC) and MIC90 Determination:
The MIC of antibacterial compounds against multiple species and strains was determined using the broth microdilution method according to M07-A10 Clinical and Laboratory Standards Institute (CLSI) guidelines (CLSI (2015) Methods for dilution antimicrobial susceptibility tests for bacteria that grow aerobically; Approved Standard, Tenth Edition. CLSI Document M7-A10 (ISBN 1-56238-987-4). Wayne, Pa.: Clinical and Laboratory Standards Institute, 19087, USA.). In short, bacterial strain preparation was performed on D1 and D2. […] 5-10 well-isolated colonies of similar morphology were selected and re-streaked onto fresh agar plates using sterile loops and incubated for 20-24 hr at 35±2° C. Bacterial strains were subcultured two times to ensure fresh inoculums for MIC screening. […] Alternatively, 1-2 colonies were transferred into 500 μL of saline and OD600 was adjusted to ˜0.1 using an OD meter. Bacterial inoculum was diluted by 1:280 for Gram-positive strains and 1:400 for Gram-negative strains into corresponding medium broth (CAMHB, CAMHB+3% lysed horse blood, HTM) (e.g. 35.6 μL of inoculum into 10 mL of CAMHB or 25 μL of inoculum into 10 mL of CAMHB). […] Compound stock concentration=[(highest testing concentration)×100 μL/2 μL] (e.g. if the required highest testing concentration is 64 μg/mL in assay plates, stock concentration=64 μg/mL×100 μL/2 μL=3.2 mg/mL). […] of each well was transferred in a new MTP, which served as the test plate by subsequent inoculation. The bacterial suspension prepared above is dispensed at 98 μL/well within 15 minutes after preparation. Negative controls (lack of bacterial cells) and growth control wells (lack of compound) were included in all plates. MTPs were incubated for 18-24 hours at 35±2° C. in ambient air. The MIC was recorded and CFUs were calculated on Day 4. The assay plate was placed on the top of MIC reader, and the magnification mirror was adjusted to read each wells, recording growth status as raw data. Photo images of each assay plates were recorded using Q Count 530 (Spiral Biotech). The MIC value of each compound, expressed as […], was determined as the lowest concentration required for complete growth inhibition (no visible growth).

[4] = Lyophilisation solubility assay (LYSA); assay type: physicochemical; conditions: phosphate buffer, pH 6.5, aqueous buffer, thermodynamic from solid, 0.05 M phosphate buffer, HPLC-UV
In short: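 Duplicate samples made from 10 mM DMSO stock. DMSO evaporated and the residue taken up in 0.05 M phosphate buffer, pH 6.5, stirred 1 h and shaken 2 h, then left overnight. Filtrate and its 1/10 dilution quantified by HPLC-UV.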

[5] = Cytotoxicity assay (HepG2, CellTiter-Blue cell viability); assay type: cell-based; conditions: human; HepG2 cells, 3 days treatment; "*": the detection limit; read-out: CC50
In short: (§2)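 HepG2 cells (1.2×10^4 per well) exposed to compounds for 3 days; viability then read by CellTiter-Blue fluorescence after 3 h at 37 °C. CC50 from four-parameter logistic fit.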

[6] = system: HepG2 cells (ATCC HB-8065); experiment: as above; assay type: cell-based; conditions: HepG2 cells, 3 days treatment; "*": the detection limit
In short: as §2

[7] = Acinetobacter baumannii, ATCC17978, A. baumannii ATCC17978

| SMILES | IC50 [1] [µM] | IC50 (A. baumannii (ATCC17978); [7]) [µM] | IC50 (S. aureus (ATCC29213)) [µM] | AUC total [2] [ng·h/mL] | clearance [2] [mL/min/kg] | MIC S9 [3] | solubility thermodynamic [4] [µg/mL] | CC50 at 3 days [5] [nM] | IC50 (A. baumannii (ATCC17978); A. baumannii ATCC17978) [µM] | CC50 [6] [nM] |
| --- | --- | --- | --- | --- | --- | --- | --- | --- | --- | --- |
| CNc1cc(F)c(F)c2c1[nH]c1ncc(-c3cnc4c(c3)c(=O)c(C(=O)O)cn4C)c(N3CC[C@H]4CN(C)C[C@H]43)c12 [Example 3.03A] | < 0.098 | 0.039 | < 0.098 | 249.6 | 66.9 | 1.749 | 137 (≈ 245 µM) | 38400 |  |  |
| CNc1cc(F)cc2c1[nH]c1ncc(-c3cnc4c(c3)c(=O)c(C(=O)O)cn4NC)c(N3CC[C@H]4CN(C)C[C@H]43)c12 [Example 3.05A] | < 0.098 | 0.055 | < 0.098 | 356.4 | 50.5 | 6.957 | 535 (≈ 961 µM) | 54500 |  |  |
| CNc1cc(F)c(F)c2c1[nH]c1ncc(-c3cnc4c(c3)c(=O)c(C(=O)O)cn4C)c(N3CC[C@H]4CN(C)CC43)c12 (stereo partly drawn) [Example 1.85] | < 0.098 | 0.089 | < 0.098 | 177.0 | 94.8 | 6.995 | 101 (≈ 180 µM) | 35200 |  |  |
| CNc1cc(F)c(F)c2c1[nH]c1ncc(-c3cnc4c(c3)c(=O)c(C(=O)O)cn4C3CCNC3)c(N(C)C)c12 (stereo not drawn) [Example 1.02] | < 0.098 |  | < 0.098 | 291.0 | 58.8 | 3.335 |  |  | 0.693 | > 100000 |
| CNc1cc(F)cc2c1[nH]c1ncc(-c3cnc4c(c3)c(=O)c(C(=O)O)cn4C)c(N3CC[C@H]4CN(C)C[C@H]43)c12 [Example 3.04A] | < 0.098 | 0.035 | < 0.098 | 241.6 | 68.9 | 6.77 | 485 (≈ 896 µM) | 49500 |  |  |
